Here are results for one molecule from ChEMBL document CHEMBL1147279, “6-Desmethoxyhormothamnione, a new cytotoxic styrylchromone from the marine cryptophyte Chrysophaeum taylori” (1989).

Values after ≈ are worked out from the molar mass of the structure shown. Active and inactive are the calls of the source. No cut-off for these calls is given here.

One test concerns Candida albicans. As to the kind of experiment: Antimicrobial activity against Candida albicans at 100 ug by paper disk assay. It is filed as functional, organism-based.
Another test relates to Escherichia coli. As to the kind of experiment: Antimicrobial activity against Escherichia coli at 100 ug by paper disk assay. It is filed as functional, organism-based.
The next test deals with Bacillus subtilis. As to the kind of experiment: Antimicrobial activity against Bacillus subtilis at 100 ug by paper disk assay. It is filed as functional, organism-based.
The test system of another test is Staphylococcus aureus. The test can be described thus: Antimicrobial activity against Staphylococcus aureus at 100 ug by paper disk assay. It is filed as functional, organism-based.
Test [1] can be described thus: Cytotoxicity against human 9KB cells. It is filed as functional. As to conditions: read-out: LD50 (the source's name).
The subject of another test is Pseudomonas aeruginosa. The test can be described thus: Antimicrobial activity against Pseudomonas aeruginosa at 100 ug by paper disk assay. It is filed as functional, organism-based.

With `COc1cc(O)c2c(=O)c(C)c(/C=C/c3cc(O)cc(O)c3)oc2c1OC`, the result in the test on Candida albicans, in the test on Escherichia coli, in the test with Bacillus subtilis, in the test with Staphylococcus aureus and in the test on Pseudomonas aeruginosa was inactive. Moreover, the CC50 in test [1] amounted to 1 µg/mL (≈ 2.7 µM).
